In PubChem BioAssay AID1918994 (Molecular Pharmacology Branch, DTP, NCI, 2023):

System: 292921-168-R-J2-PDC complex spheroid growth
Assay: Anticancer human tumor 292921-168-R-J2-PDC patient-derived pancreatic carcinoma cell line growth inhibition [AhR]
Settings: for IC50: curve of first compound; for viability, T/C: stronger effect = lower value
Procedure, shortened: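 Complex tumor spheroids co-cultured with HUVEC and human MSC stroma; AhR antagonists tested in combination with standard-of-care and investigational agents. Top concentration at or near clinical Cmax (else 10 microM), half-log dilutions; growth expressed as percent test/control.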

[1] = second compound 0.1 µM, first compound 0.00316 µM
[2] = second compound 0.1 µM, first compound 0.01 µM
[3] = second compound 0.1 µM, first compound 0.0316 µM
[4] = second compound 0.1 µM, first compound 0.1 µM
[5] = second compound 0.316 µM, first compound 0.00316 µM
[6] = second compound 0.316 µM, first compound 0.01 µM
[7] = second compound 0.316 µM, first compound 0.0316 µM
[8] = second compound 0.316 µM, first compound 0.1 µM
[9] = second compound 1 µM, first compound 0.00316 µM
[10] = second compound 1 µM, first compound 0.01 µM
[11] = second compound 1 µM, first compound 0.0316 µM
[12] = second compound 1 µM, first compound 0.1 µM
[13] = second compound 3.16 µM, first compound 0.00316 µM
[14] = second compound 3.16 µM, first compound 0.01 µM
[15] = second compound 3.16 µM, first compound 0.0316 µM
[16] = second compound 3.16 µM, first compound 0.1 µM
[17] = second compound 10 µM, first compound 0.00316 µM
[18] = second compound 10 µM, first compound 0.01 µM
[19] = second compound 10 µM, first compound 0.0316 µM
[20] = second compound 10 µM, first compound 0.1 µM
[21] = second compound 0.1 µM, first compound 0.316 µM
[22] = second compound 0.1 µM, first compound 1 µM
[23] = second compound 0.1 µM, first compound 3.16 µM
[24] = second compound 0.1 µM, first compound 10 µM
[25] = second compound 0.316 µM, first compound 0.316 µM
[26] = second compound 0.316 µM, first compound 1 µM
[27] = second compound 0.316 µM, first compound 3.16 µM
[28] = second compound 0.316 µM, first compound 10 µM
[29] = second compound 1 µM, first compound 0.316 µM
[30] = second compound 1 µM, first compound 1 µM
[31] = second compound 1 µM, first compound 3.16 µM
[32] = second compound 1 µM, first compound 10 µM
[33] = second compound 3.16 µM, first compound 0.316 µM
[34] = second compound 3.16 µM, first compound 1 µM
[35] = second compound 3.16 µM, first compound 3.16 µM
[36] = second compound 3.16 µM, first compound 10 µM
[37] = second compound 10 µM, first compound 0.316 µM
[38] = second compound 10 µM, first compound 1 µM
[39] = second compound 10 µM, first compound 3.16 µM
[40] = second compound 10 µM, first compound 10 µM
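Note: spheroids exposed to compounds for seven days after three days of growth.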

Structure (SMILES)	IC50 (second compound 0.1 µM)	IC50 (second compound 0.316 µM)	IC50 (second compound 1 µM)	IC50 (second compound 3.16 µM)	IC50 (second compound 10 µM)	viability, T/C [3]	viability, T/C [4]	viability, T/C [7]	viability, T/C [8]	viability, T/C [11]	viability, T/C [12]	viability, T/C [15]	viability, T/C [16]	viability, T/C [19]	viability, T/C [20]	viability, T/C [21]	viability, T/C [22]	viability, T/C [25]	viability, T/C [26]	viability, T/C [29]	further results
CC[C@@]1(O)C(=O)OCc2c1cc1n(c2=O)Cc2cc3c(CN(C)C)c(O)ccc3nc2-1 + Cc1cncc(-c2nc(NCCc3c[nH]c4ccccc34)c3ncn(C(C)C)c3n2)c1	39.2 nM	28.1 nM	30.2 nM	21 nM	1.19 nM	58.9%	23.3%	49.6%	23.7%	54%	24.1%	44.2%	22.2%	33.4%	24.2%						viability, T/C (second compound 0.1 µM, first compound 0.000316 µM): 90.2%; viability, T/C (second compound 0.1 µM, first compound 0.001 µM): 90.4%; viability, T/C [1]: 89.5%; viability, T/C [2]: 68.1%; viability, T/C (second compound 0.316 µM, first compound 0.000316 µM): 89.1%; viability, T/C (second compound 0.316 µM, first compound 0.001 µM): 92.8%; viability, T/C [5]: 87.8%; viability, T/C [6]: 67.4%; viability, T/C (second compound 1 µM, first compound 0.000316 µM): 91%; viability, T/C (second compound 1 µM, first compound 0.001 µM): 90.6%; viability, T/C [9]: 80.9%; viability, T/C [10]: 60.3%; viability, T/C (second compound 3.16 µM, first compound 0.000316 µM): 69.9%; viability, T/C (second compound 3.16 µM, first compound 0.001 µM): 67.7%; viability, T/C [13]: 73.2%; viability, T/C [14]: 59.4%; viability, T/C (second compound 10 µM, first compound 0.000316 µM): 52.1%; viability, T/C (second compound 10 µM, first compound 0.001 µM): 49.1%; viability, T/C [17]: 50.1%; viability, T/C [18]: 37.5%
COc1cc(C2c3cc4c(cc3C(OC3OC5COC(C)OC5C(O)C3O)C3COC(=O)C23)OCO4)cc(OC)c1O (stereo not given) + Cc1cncc(-c2nc(NCCc3c[nH]c4ccccc34)c3ncn(C(C)C)c3n2)c1	565 nM	581 nM	289 nM	261 nM	< 31.6 nM	92.6%	92.2%	78.7%	73.6%	77.1%	67%	62.3%	62.5%	46.5%	43.6%	64%	34.1%	64.8%	35.9%	48.9%	viability, T/C [23]: 24.2%; viability, T/C [24]: 13.3%; viability, T/C [27]: 24.7%; viability, T/C [28]: 12.9%; viability, T/C [30]: 28.7%; viability, T/C [31]: 23.4%; viability, T/C [32]: 13.1%; viability, T/C [33]: 47.5%; viability, T/C [34]: 25.9%; viability, T/C [35]: 21.2%; viability, T/C [36]: 13.5%; viability, T/C [37]: 37.2%; viability, T/C [38]: 26.2%; viability, T/C [39]: 22.3%; viability, T/C [40]: 20.2%
COc1cccc2c1C(=O)c1c(O)c3c(c(O)c1C2=O)CC(O)(C(=O)CO)CC3OC1CC(N)C(O)C(C)O1 (stereo not given) + Cc1cncc(-c2nc(NCCc3c[nH]c4ccccc34)c3ncn(C(C)C)c3n2)c1	< 31.6 nM	< 31.6 nM	< 31.6 nM	< 31.6 nM	< 31.6 nM	30.9%	25.2%	30.6%	23.2%	29.3%	22.7%	26.8%	22.1%	25.3%	21.3%	9.88%	0.21%	9.81%	0.2%	9.15%	viability, T/C [23]: 0.78%; viability, T/C [24]: 2.79%; viability, T/C [27]: 0.66%; viability, T/C [28]: 2.98%; viability, T/C [30]: 0.34%; viability, T/C [31]: 1.61%; viability, T/C [32]: 3.01%; viability, T/C [33]: 9.58%; viability, T/C [34]: 0.2%; viability, T/C [35]: 1.48%; viability, T/C [36]: 3.82%; viability, T/C [37]: 10.8%; viability, T/C [38]: 0.46%; viability, T/C [39]: 2.04%; viability, T/C [40]: 4.23%
Nc1ccn(C2OC(CO)C(O)C2(F)F)c(=O)n1 (stereo not given) + Cc1cncc(-c2nc(NCCc3c[nH]c4ccccc34)c3ncn(C(C)C)c3n2)c1	< 31.6 nM	< 31.6 nM	< 31.6 nM	< 31.6 nM	< 31.6 nM	8.94%	10.1%	10.2%	9.23%	12%	9.47%	13.8%	12.3%	29.8%	21.1%	9.38%	9.84%	9.06%	8.59%	9.26%	viability, T/C [23]: 9.57%; viability, T/C [24]: 7.01%; viability, T/C [27]: 9.76%; viability, T/C [28]: 6.34%; viability, T/C [30]: 9.49%; viability, T/C [31]: 8.78%; viability, T/C [32]: 7.47%; viability, T/C [33]: 10.2%; viability, T/C [34]: 11.6%; viability, T/C [35]: 11.6%; viability, T/C [36]: 8.76%; viability, T/C [37]: 19.3%; viability, T/C [38]: 15.2%; viability, T/C [39]: 15.8%; viability, T/C [40]: 13.4%
Nc1ncn(C2CC(O)C(CO)O2)c(=O)n1 (stereo not given) + Cc1cncc(-c2nc(NCCc3c[nH]c4ccccc34)c3ncn(C(C)C)c3n2)c1	> 1000 nM	> 1000 nM	> 1000 nM	> 1000 nM	9.68 nM	84%	89.6%	88.1%	79.3%	80.4%	77.8%	76.5%	67.6%	50%	47.1%	80.6%	65.6%	78.6%	70.7%	82%	viability, T/C [1]: 99.6%; viability, T/C [2]: 100%; viability, T/C [5]: 84.1%; viability, T/C [6]: 86.2%; viability, T/C [9]: 80.5%; viability, T/C [10]: 86.9%; viability, T/C [30]: 73.7%; viability, T/C [13]: 70.7%; viability, T/C [14]: 71.9%; viability, T/C [33]: 64.1%; viability, T/C [34]: 62.3%; viability, T/C [17]: 51.9%; viability, T/C [18]: 49%; viability, T/C [37]: 43.2%; viability, T/C [38]: 45.5%
